According to ChEMBL document CHEMBL1201862, “PubChem BioAssay data set” (2004):
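These data come from cells grown in 96-well plates and exposed to compound for 48 hours at five concentrations. GI50 = concentration required for 50% inhibition of growth.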 Active and inactive are the calls of the source. Rule as the data show it: active = GI50 up to about 1.1 µM and inactive = higher.

What was measured:
Assay in all cases: inhibition of tumour cell growth, NCI panel, 48 h
Malme-3M = tested on: Malme-3M
ACHN = tested on: ACHN
OVCAR-3 = tested on: OVCAR-3
MOLT-4 = tested on: MOLT-4
NCI/ADR-RES = tested on: NCI/ADR-RES
COLO 205 = tested on: COLO 205
SF-268 = tested on: SF-268
EKVX = tested on: EKVX
RPMI-8226 = tested on: RPMI-8226
HT-29 = tested on: HT-29
IGROV-1 = tested on: IGROV-1
U-251 = tested on: U-251
NCI-H23 = tested on: NCI-H23
SF-295 = tested on: SF-295
TK-10 = tested on: TK-10
T47D = tested on: T47D
SR = tested on: SR
SNB-75 = tested on: SNB-75
NCI-H226 = tested on: NCI-H226
SK-MEL-5 = tested on: SK-MEL-5

Structure (SMILES)	GI50 (Malme-3M)	GI50 (ACHN)	GI50 (OVCAR-3)	GI50 (MOLT-4)	GI50 (NCI/ADR-RES)	GI50 (COLO 205)	GI50 (SF-268)	GI50 (EKVX)	GI50 (RPMI-8226)	GI50 (HT-29)	GI50 (IGROV-1)	GI50 (U-251)	GI50 (NCI-H23)	GI50 (SF-295)	GI50 (TK-10)	GI50 (T47D)	GI50 (SR)	GI50 (SNB-75)	GI50 (NCI-H226)	GI50 (SK-MEL-5)
O=C(O)CN(CC(=O)O)c1ccccc1	45.8 µM (inactive)	> 100 µM (inactive)	75.2 µM (inactive)	> 100 µM (inactive)	> 100 µM (inactive)	> 100 µM (inactive)	> 100 µM (inactive)	> 100 µM (inactive)	35.6 µM (inactive)	59.4 µM (inactive)	> 100 µM (inactive)	74.5 µM (inactive)	75.3 µM (inactive)	> 100 µM (inactive)	> 100 µM (inactive)	37.3 µM (inactive)	> 100 µM (inactive)	> 100 µM (inactive)	> 100 µM (inactive)	84.5 µM (inactive)
O=C(O)/C=C/C(=O)Nc1cccc2c1-c1ccccc1C2=O	8.28 µM (inactive)	17.3 µM (inactive)	2.21 µM (inactive)	2.63 µM (inactive)	10.3 µM (inactive)	13.1 µM (inactive)	16.3 µM (inactive)	> 90.8 µM (inactive)	8.81 µM (inactive)	22.3 µM (inactive)	4.75 µM (inactive)	5.27 µM (inactive)	18.2 µM (inactive)	3.57 µM (inactive)	5.68 µM (inactive)	> 51.5 µM (inactive)	9.2 µM (inactive)	> 20.6 µM (inactive)	31.2 µM (inactive)	4.39 µM (inactive)
COc1ccc2o/c(=N/c3ccccc3)c(C(N)=O)cc2c1	> 100 µM (inactive)	19 µM (inactive)	> 100 µM (inactive)	> 100 µM (inactive)	> 69.8 µM (inactive)	> 100 µM (inactive)	47.3 µM (inactive)	> 25.5 µM (inactive)	> 100 µM (inactive)		> 70.6 µM (inactive)	> 79.1 µM (inactive)	> 58.1 µM (inactive)	74 µM (inactive)	> 49.2 µM (inactive)	> 100 µM (inactive)	> 100 µM (inactive)	53.7 µM (inactive)	> 85.3 µM (inactive)	> 100 µM (inactive)
COc1cc(OC)c2c(O)c3c(cc2c1)CC(C)(C)CC3=O	48.5 µM (inactive)	> 100 µM (inactive)	> 74.1 µM (inactive)	> 76.6 µM (inactive)	> 100 µM (inactive)	> 100 µM (inactive)	> 100 µM (inactive)	> 100 µM (inactive)	> 100 µM (inactive)	5.96 µM (inactive)	> 100 µM (inactive)	56.5 µM (inactive)	> 100 µM (inactive)	> 72.6 µM (inactive)	> 100 µM (inactive)	> 100 µM (inactive)	> 26.7 µM (inactive)	49.7 µM (inactive)	> 100 µM (inactive)	> 100 µM (inactive)
CC1(C)C(=O)C2(OS(=O)(=O)C(F)(F)F)CCC1C2 (stereo not drawn)	> 100 µM (inactive)	> 100 µM (inactive)	> 100 µM (inactive)	> 100 µM (inactive)	> 100 µM (inactive)	> 100 µM (inactive)	> 100 µM (inactive)	> 100 µM (inactive)	> 100 µM (inactive)	> 100 µM (inactive)	> 100 µM (inactive)	> 100 µM (inactive)	> 100 µM (inactive)	> 100 µM (inactive)	> 100 µM (inactive)	> 100 µM (inactive)	1 µM (active)	> 100 µM (inactive)	> 100 µM (inactive)	> 100 µM (inactive)
CC(=O)OCC1OC(n2c(Br)nc3c2c(=O)n(C)c(=O)n3C)C(OC(C)=O)C1OC(C)=O (stereo not drawn)	> 100 µM (inactive)	48.3 µM (inactive)	48.1 µM (inactive)	> 100 µM (inactive)	> 100 µM (inactive)	75 µM (inactive)	62.7 µM (inactive)	64.7 µM (inactive)	27.9 µM (inactive)	43.8 µM (inactive)	> 100 µM (inactive)	39.8 µM (inactive)	77.3 µM (inactive)	> 100 µM (inactive)	> 100 µM (inactive)	> 100 µM (inactive)	19.9 µM (inactive)	85.1 µM (inactive)	71.6 µM (inactive)	31.9 µM (inactive)
N=c1oc2c(Br)cc(Br)cc2cc1C(=O)Nc1ccccn1	52.2 µM (inactive)	70.5 µM (inactive)	32.3 µM (inactive)	> 100 µM (inactive)	61.4 µM (inactive)	> 100 µM (inactive)	78.9 µM (inactive)	> 100 µM (inactive)	87.1 µM (inactive)	44.1 µM (inactive)	> 100 µM (inactive)	96.6 µM (inactive)	69.2 µM (inactive)			38.8 µM (inactive)	91 µM (inactive)	> 100 µM (inactive)	84.9 µM (inactive)	63.1 µM (inactive)
CC(O)C1(O)C(O)CC(OC2c3cc4c(c(O)c3[C@@H]3C[C@@]2(C)OC32C=c3cc[nH]c3=N2)C(=O)c2cccc(O)c2C4=O)OC1C (stereo partly drawn)	0.938 µM (active)	0.759 µM (active)	1.08 µM (active)	0.334 µM (active)	3.44 µM (inactive)	0.697 µM (active)	1.79 µM (inactive)	1.11 µM (active)	0.948 µM (active)	0.644 µM (active)	0.592 µM (active)	1.53 µM (inactive)	1.53 µM (inactive)	1.87 µM (inactive)	1.71 µM (inactive)	3.1 µM (inactive)	0.287 µM (active)	1.26 µM (inactive)	0.701 µM (active)	3.06 µM (inactive)
C=C1C(=O)OC2/C=C(\CO)CC/C=C(\CO)CC(OC(=O)C(C)C)C12 (stereo not drawn)	2.08 µM (inactive)	1.95 µM (inactive)	11.6 µM (inactive)	3.25 µM (inactive)	17.6 µM (inactive)	2.16 µM (inactive)	13.9 µM (inactive)	16.4 µM (inactive)	3.37 µM (inactive)	14.6 µM (inactive)	15.7 µM (inactive)	18.1 µM (inactive)	19.3 µM (inactive)	21.3 µM (inactive)	3.94 µM (inactive)	4.72 µM (inactive)	4.79 µM (inactive)	16.5 µM (inactive)	16 µM (inactive)	19 µM (inactive)
CC(=O)c1c2c(cc3c1CCC3)CCC2	> 100 µM (inactive)	> 100 µM (inactive)	> 100 µM (inactive)	20.6 µM (inactive)	> 100 µM (inactive)	> 100 µM (inactive)	> 100 µM (inactive)	63.5 µM (inactive)	76 µM (inactive)	> 100 µM (inactive)	> 100 µM (inactive)	> 100 µM (inactive)	> 100 µM (inactive)	> 100 µM (inactive)	49 µM (inactive)	15.4 µM (inactive)	> 100 µM (inactive)	> 100 µM (inactive)	82 µM (inactive)	> 100 µM (inactive)
CCCCCCCCCCCCCCCCCCNc1ccn(C2OC(COP(=O)(O)OC3CC(n4cc(F)c(=O)[nH]c4=O)OC3COP(=O)(O)OCC3OC(n4ccc(N)nc4=O)C(O)C3O)C(O)C2O)c(=O)n1 (stereo not drawn)	> 46.9 µM (inactive)	0.143 µM (active)	30.5 µM (inactive)	0.611 µM (active)	14.5 µM (inactive)	8.17 µM (inactive)		32 µM (inactive)	14.9 µM (inactive)	13.7 µM (inactive)	15.2 µM (inactive)	7.67 µM (inactive)	2.92 µM (inactive)	0.413 µM (active)	2.56 µM (inactive)	24.5 µM (inactive)	0.407 µM (active)	38.6 µM (inactive)	> 24 µM (inactive)	3.62 µM (inactive)
CCOC(=O)c1nc2cc(C(F)(F)F)ccc2nc1Oc1ccc(C#N)cc1	> 100 µM (inactive)	> 100 µM (inactive)	> 100 µM (inactive)	63.2 µM (inactive)	> 100 µM (inactive)	> 100 µM (inactive)	> 100 µM (inactive)	> 100 µM (inactive)	54.3 µM (inactive)		> 100 µM (inactive)	> 100 µM (inactive)		> 100 µM (inactive)	> 100 µM (inactive)	55.7 µM (inactive)	60.7 µM (inactive)	> 100 µM (inactive)	> 100 µM (inactive)	92.5 µM (inactive)
Nc1ccc(-c2nc3cc(F)ccc3s2)cc1Cl	20.1 µM (inactive)	1.57 µM (inactive)	0.049 µM (active)	> 35.6 µM (inactive)	48.9 µM (inactive)	0.454 µM (active)	25.5 µM (inactive)	1.17 µM (inactive)	> 55.1 µM (inactive)	0.692 µM (active)	< 0.01 µM (active)	20 µM (inactive)		23.5 µM (inactive)	0.0357 µM (active)	0.0615 µM (active)	0.0382 µM (active)	20.5 µM (inactive)	0.109 µM (active)	25.5 µM (inactive)
CSc1ccccc1P(CCP(c1ccccc1SC)c1ccccc1SC)c1ccccc1SC	29.9 µM (inactive)	47.2 µM (inactive)	0.543 µM (active)	2.22 µM (inactive)	> 93.1 µM (inactive)	0.697 µM (active)	36.4 µM (inactive)	19.6 µM (inactive)	4.47 µM (inactive)	1.28 µM (inactive)	0.8 µM (active)	4.2 µM (inactive)	1 µM (active)	7.08 µM (inactive)	> 69 µM (inactive)	12.4 µM (inactive)	1.11 µM (active)	13 µM (inactive)	10.4 µM (inactive)	55.5 µM (inactive)
